According to patent US8232401B2 (Japan Tobacco Inc., priority 2002, dated 2012):

Biological target: T1, HIV integrase (Human immunodeficiency virus type 1 group M subtype B, UniProt P12497, F1332H)
T1 construct: HIV integrase full length gene; made in house; host or cells: Escherichia coli BL21(DE3)
Assay: Determination of enzyme (HIV integrase) inhibitory activity (strand transfer, microtiter plate, absorbance at 450 nm)
Type: biochemical, HIV (Human Immunodeficiency Virus (type 1))
Conditions: recombinant HIV integrase (F185H) expressed in E. coli; donor DNA on streptavidin plate, digoxigenin target DNA; 37° C.
Method: The following explains evaluation methods of the HIV integrase inhibitory activity of the compound of the present invention.
(i) Construction of Recombinant Integrase Gene Expression System
(ii) Production and Purification of Integrase Protein
Escherichia coli recombinant BL21(DE3) transformed with plasmid pET21a-IN-F185H obtained in (i) was shake cultured at 30° C. in a liquid medium containing ampicillin. When the culture reached the logarithmic growth phase, isopropyl-β-D-thiogalactopyranoside was added to promote expression of integrase gene. The culture was continued for 3 hrs to promote accumulation of the integrase protein. The recombinant E. coli was collected in pellets by centrifugal separation and preserved at −80° C.
The E. coli was suspended in Lysis buffer (20 mM HEPES (pH 7.5), 5 mM DTT, 10 mM CHAPS, 10% glycerol) containing 1M sodium chloride and subjected to repeat pressurization and depressurization for rupture, and centrifugal separation at 4° C., 40,000×g, 60 min to recover a water-soluble fraction (supernatant). This was diluted 10-fold with Lysis buffer free of sodium chloride, mixed with SP-Sepharose (Pharmacia Corporation) and stirred at 4° C. for 60 min to allow adsorption of integrase protein to the resin. The resin was washed with Lysis buffer containing 100 mM sodium chloride and the integrase protein was eluted with Lysis buffer containing 1M sodium chloride.
The eluted integrase protein solution was applied to a Superdex 75 (Pharmacia Corporation) column for gel filtration. The protein was eluted with Lysis buffer containing 1M sodium chloride.
The obtained fractions of the integrate protein were collected and preserved at −80° C.
(iii) Preparation of DNA Solution
The following DNA synthesized by Greiner was dissolved in TE buffer (10 mM Tris-hydrochloric acid (pH 8.0), 1 mM EDTA) and mixed with donor DNA, target DNA, each complementary strand (+ and − strands) to 1 μM. The mixture was heated at 95° C. for 5 min, 80° C. for 10 min, 70° C. for 10 min, 60° C. for 10 min, 50° C. for 10 min and 40° C. for 10 min and preserved at 25° C. to give a double stranded DNA, which was used for the test. Donor DNA (− strand having biotin attached to the 5′ terminal)
(iv) Determination of Enzyme (HIV Integrase) Inhibitory activity
The donor DNA was diluted with TE buffer to 10 nM, of which 50 μl was added to each well of streptavidin-coated microtiter plate (Roche) and allowed to adsorb at 37° C. for 60 min. The DNA was washed with phosphate buffer (Dulbecco PBS, Sanko Junyaku Co., Ltd.) containing 0.1% Tween 20 and phosphate buffer. Then, a reaction mixture (70 μl) having the following composition, a test substance (10 μl) diluted with the reaction mixture and […] integrase protein (10 μl) were added to each well and reacted at 37° C. for 60 min.
Then, 50 nM target DNA (1.0 μl) was added, reacted at 37° C. for 10 min and washed with phosphate buffer containing 0.1% Tween 20 to stop the reaction.
Then, 100 mU/ml peroxidase labeled anti-digoxigenin antibody solution (Roche, 100 μl) was added, and the mixture was reacted at 37° C. for 60 min, followed by washing with phosphate buffer containing 0.1% Tween 20.
A peroxidase color solution (Bio Rad, 100 μl) was added and allowed to react at room temperature for 4 min. The color reaction was stopped by adding 1N sulfuric acid (100 μl). The absorbance at 450 nm was measured.
The HIV integrase inhibitory activity (IC50) of the compound of the present invention was calculated from the inhibition rate according to the following formula. […] Evaluation of Antiviral Activity

O=C(O)c1cn(CCO)c2ccc(Cc3c(F)cccc3Cl)cc2c1=O [Example 1-33, 6-(2-Chloro-6-fluorobenzyl)-1-(2-hydroxyethyl)-4-oxo-1,4-dihydroquinoline-3-carboxylic acid]
IC50: 0.14 µM

O=C(O)c1cn(CCCCCO)c2ccc(Cc3cccc(Cl)c3Cl)cc2c1=O [Example 1-34, 6-(2,3-Dichlorobenzyl)-1-(5-hydroxypentyl)-4-oxo-1,4-dihydroquinoline-3-carboxylic acid]
IC50: 0.35 µM

Cn1cc(C(=O)O)c(=O)c2cc(Cc3cccc(Cl)c3Cl)ccc21 [Example 1-36, 6-(2,3-Dichlorobenzyl)-1-methyl-4-oxo-1,4-dihydroquinoline-3-carboxylic acid]
IC50: 0.18 µM

CCn1cc(C(=O)O)c(=O)c2cc(Cc3cccc(Cl)c3Cl)ccc21 [Example 1-37, 6-(2,3-Dichlorobenzyl)-1-ethyl-4-oxo-1,4-dihydroquinoline-3-carboxylic acid]
IC50: 0.11 µM

CCCn1cc(C(=O)O)c(=O)c2cc(Cc3cccc(Cl)c3Cl)ccc21 [Example 1-38, 6-(2,3-Dichlorobenzyl)-4-oxo-1-propyl-1,4-dihydroquinoline-3-carboxylic acid]
IC50: 0.17 µM

CCCCn1cc(C(=O)O)c(=O)c2cc(Cc3cccc(Cl)c3Cl)ccc21 [Example 1-39, 1-Butyl-6-(2,3-Dichlorobenzyl)-4-oxo-1,4-dihydroquinoline-3-carboxylic acid]
IC50: 0.18 µM

O=C(O)c1cn(CC2CCCC2)c2ccc(Cc3cccc(Cl)c3Cl)cc2c1=O [Example 1-40, 1-Cyclopentylmethyl-6-(2,3-dichlorobenzyl)-4-oxo-1,4-dihydroquinoline-3-carboxylic acid]
IC50: 0.11 µM

CS(=O)(=O)CCn1cc(C(=O)O)c(=O)c2cc(Cc3cccc(Cl)c3Cl)ccc21 [Example 1-41, 6-(2,3-Dichlorobenzyl)-1-(2-methanesulfonylethyl)-4-oxo-1,4-dihydroquinoline-3-carboxylic acid]
IC50: 0.21 µM

O=C(O)c1cn(CC2CCCCC2)c2ccc(Cc3cccc(Cl)c3Cl)cc2c1=O [Example 1-42, 1-Cyclohexylmethyl-6-(2,3-dichlorobenzyl)-4-oxo-1,4-dihydroquinoline-3-carboxylic acid]
IC50: 0.13 µM

O=C(O)c1cn(CC(O)c2ccccc2)c2ccc(Cc3cccc(Cl)c3Cl)cc2c1=O (stereo not shown) [Example 1-43, 6-(2,3-Dichlorobenzyl)-1-(2-hydroxy-2-phenylethyl)-4-oxo-1,4-dihydroquinoline-3-carboxylic acid]
IC50: 0.024 µM

O=C(O)c1cn(CCF)c2ccc(Cc3cccc(Cl)c3Cl)cc2c1=O [Example 1-44, 6-(2,3-Dichlorobenzyl)-1-(2-fluoroethyl)-4-oxo-1,4-dihydroquinoline-3-carboxylic acid]
IC50: 0.051 µM

O=C(O)c1cn(CCc2ccccn2)c2ccc(Cc3cccc(Cl)c3Cl)cc2c1=O [Example 1-45, 6-(2,3-Dichlorobenzyl)-4-oxo-1-(2-pyridin-2-ylethyl)-1,4-dihydroquinoline-3-carboxylic acid]
IC50: 0.21 µM

NCCn1cc(C(=O)O)c(=O)c2cc(Cc3cccc(Cl)c3Cl)ccc21 [Example 1-46, 1-(2-Aminoethyl)-6-(2,3-dichlorobenzyl)-4-oxo-1,4-dihydroquinoline-3-carboxylic acid]
IC50: 0.42 µM

CC(C)(O)Cn1cc(C(=O)O)c(=O)c2cc(Cc3cccc(Cl)c3Cl)ccc21 [Example 1-47, 6-(2,3-Dichlorobenzyl)-1-(2-hydroxy-2-methylpropyl)-4-oxo-1,4-dihydroquinoline-3-carboxylic acid]
IC50: 0.098 µM

CC(=O)NCCn1cc(C(=O)O)c(=O)c2cc(Cc3cccc(Cl)c3Cl)ccc21 [Example 1-48, 1-(2-Acetylaminoethyl)-6-(2,3-dichlorobenzyl)-4-oxo-1,4-dihydroquinoline-3-carboxylic acid]
IC50: 0.38 µM

CCOC(=O)NCCn1cc(C(=O)O)c(=O)c2cc(Cc3cccc(Cl)c3Cl)ccc21 [Example 1-49, 6-(2,3-Dichlorobenzyl)-1-(2-ethoxycarbonylaminoethyl)-4-oxo-1,4-dihydroquinoline-3-carboxylic acid]
IC50: 0.053 µM

O=C(O)c1cn(CCO)c2ccc(Cc3cccc(F)c3F)cc2c1=O [Example 1-50, 6-(2,3-Difluorobenzyl)-1-(2-hydroxyethyl)-4-oxo-1,4-dihydroquinoline-3-carboxylic acid]
IC50: 0.11 µM

O=C(O)c1cn(CCO)c2ccc(Cc3ccc(F)cc3Cl)cc2c1=O [Example 1-51, 6-(2-Chloro-4-fluorobenzyl)-1-(2-hydroxyethyl)-4-oxo-1,4-dihydroquinoline-3-carboxylic acid]
IC50: 0.18 µM

O=C(O)c1cn(CCO)c2ccc(Cc3cccc(Cl)c3Cl)cc2c1=O [Example 1-63]
IC50: 0.02 µM

O=C(O)c1cn(CCO)c2ccc(Cc3c(F)cccc3Cl)cc2c1=O [Example 1-64]
IC50: 0.056 µM

O=C(O)c1cn(CCc2ccccc2)c2ccc(Cc3ccccc3Cl)cc2c1=O [Example 1-65, 6-(2-Chlorobenzyl)-4-oxo-1-phenethyl-1,4-dihydroquinoline-3-carboxylic acid]
IC50: 0.12 µM

O=C(O)c1cn(CCO)c2ccc(Cc3cccc(F)c3Cl)cc2c1=O [Example 1-66, 6-(2-Chloro-3-fluorobenzyl)-1-(2-hydroxyethyl)-4-oxo-1,4-dihydroquinoline-3-carboxylic acid]
IC50: 0.049 µM

O=C(O)c1cn(CCO)c2ccc(Cc3cccc([N+](=O)[O-])c3)cc2c1=O [Example 1-67]
IC50: 0.79 µM

CSCn1cc(C(=O)O)c(=O)c2cc(Cc3cccc(Cl)c3Cl)ccc21 [Example 1-68, 6-(2,3-Dichlorobenzyl)-1-methylsulfanylmethyl-4-oxo-1,4-dihydroquinoline-3-carboxylic acid]
IC50: 0.049 µM

CS(=O)(=O)Cn1cc(C(=O)O)c(=O)c2cc(Cc3cccc(Cl)c3Cl)ccc21 [Example 1-69, 6-(2,3-Dichlorobenzyl)-1-methanesulfonylmethyl-4-oxo-1,4-dihydroquinoline-3-carboxylic acid]
IC50: 0.074 µM

CC(C)(C)NS(=O)(=O)Cn1cc(C(=O)O)c(=O)c2cc(Cc3cccc(Cl)c3Cl)ccc21 [Example 1-70, 1-tert-Butylsulfamoylmethyl-6-(2,3-dichlorobenzyl)-4-oxo-1,4-dihydroquinoline-3-carboxylic acid]
IC50: 0.082 µM

CNS(=O)(=O)Cn1cc(C(=O)O)c(=O)c2cc(Cc3cccc(Cl)c3Cl)ccc21 [Example 1-71, 6-(2,3-Dichlorobenzyl)-1-methylsulfamoylmethyl-4-oxo-1,4-dihydroquinoline-3-carboxylic acid]
IC50: 0.013 µM

CN(C)S(=O)(=O)Cn1cc(C(=O)O)c(=O)c2cc(Cc3cccc(Cl)c3Cl)ccc21 [Example 1-72, 6-(2,3-Dichlorobenzyl)-1-dimethylsulfamoylmethyl-4-oxo-1,4-dihydroquinoline-3-carboxylic acid]
IC50: 0.025 µM

O=C(O)c1cn(CCO)c2ccc(Cc3c(F)ccc(F)c3Cl)cc2c1=O [Example 1-73, 6-(2-Chloro-3,6-difluorobenzyl)-1-(2-hydroxyethyl)-4-oxo-1,4-dihydroquinoline-3-carboxylic acid]
IC50: 0.031 µM

O=C(O)c1cn(CC(O)CO)c2ccc(Cc3cccc(Cl)c3Cl)cc2c1=O (stereo not shown) [Example 1-74, 6-(2,3-Dichlorobenzyl)-1-(2,3-Dihydroxypropyl)-4-oxo-1,4-dihydroquinoline-3-carboxylic acid]
IC50: 0.098 µM

NS(=O)(=O)Cn1cc(C(=O)O)c(=O)c2cc(Cc3c(F)cccc3Cl)ccc21 [Example 1-75, 6-(2-Chloro-6-fluorobenzyl)-1-sulfamoylmethyl-4-oxo-1,4-dihydroquinoline-3-carboxylic acid]
IC50: 0.016 µM
